Laboratory results from patent US12458630B2, “Combination therapy for cancer” (The Regents of the University of California, priority 2020, dated 2025).
Entries after “also recorded” stand apart in the source; their conditions may differ.

Legend:
MIA PaCa-2 cells [1] = assay: TMR-DEX macropinosome uptake assay; format: cell-based, human
Experimental: Cell imaging. Immunostaining was performed as described^44. Cells were cultured on coverslips and fixed in 4% PFA for 10 min at room temperature. After washing twice in PBS, cells were incubated in PBS containing 10% FBS to block nonspecific sites of antibody adsorption. The cells were then incubated with the appropriate primary antibodies (diluted 1:100) and secondary antibodies (diluted 1:500) in PBS containing 10% FBS with or without 0.1% saponin. For cell macropinosome visualization, 24 hrs after seeding, the cells were serum starved for 18 hrs. Macropinosomes were marked using a high-molecular-mass (70 KD) TMR-Dextran (Invitrogen)-uptake assay, wherein TMR-DEX was added to serum-free medium at a final concentration of 1 mg/ml for 30 min at 37° C. At the end of the incubation period, the cells were rinsed five times in cold PBS and immediately fixed in 4% PFA. For tissue macropinosome visualization^45, fresh pancreata were cut into pieces with an approximate 5-mm cuboidal shape. A tissue section was placed in a 24-well plate and injected 150 μL of 10 mg/ml TMR-DEX solution directly into the tissue piece. Another 250 μL of diluted TMR-DEX solution were added to the well to immerse the tissue section. The plate was incubated in the dark for 15 min at room temperature. Then the tissue section was rinsed twice in PBS before embedding in O.C.T. compound in a prelabeled cryomold. Specimens were frozen on dry ice and stored at −80° C. for further processing. Immunostaining was performed as described above. Images were captured using a TCS SPE Leica confocal microscope (Leica, Germany).
In some embodiments, Immunostaining was performed as described (Su et al., 2017). Cells were cultured on coverslips and fixed in 4% PFA for 10 min at room temperature or methanol for 10 min at −20° C. After washing twice in PBS, cells were incubated in PBS containing 10% FBS to block nonspecific sites of antibody adsorption. The cells were then incubated with the appropriate primary antibodies (diluted 1:100) and secondary antibodies (diluted 1:500) in PBS containing 10% FBS with or without 0.1% saponin. For cell macropinosome visualization, 24 hrs after seeding, the cells were serum starved for 18 hrs. Macropinosomes were marked using a high-molecular-mass (70 KDa) TMR-DEX (Invitrogen)-uptake assay, wherein TMR-DEX was added to serum-free medium at a final concentration of 1 mg/ml for 30 min at 37° C. At the end of the incubation period, the cells were rinsed five times in cold PBS and immediately fixed in 4% PFA. For tissue macropinosome visualization (Lee et al., 2019), fresh pancreata were cut into pieces with an approximate 5-mm cuboidal shape. Tissue fragments were placed in a 24-well plate and injected with 150 μL of 10 mg/ml TMR-DEX solution. Another 250 μL of diluted TMR-DEX solution were added to the well to immerse the tissue fragment. The plate was incubated in the dark for 15 min at room temperature. Then the tissue fragments were rinsed twice in PBS before embedding in O.C.T. compound in a prelabeled cryomold. Specimens were frozen on dry ice and stored at −80° C. for further processing. Immunostaining was performed as described above. Images were captured using a TCS SPE Leica confocal microscope (Leica, Germany).
Quantification and statistics. To quantify the number of LC3 puncta, a total of 30 cells were recorded and analyzed using the LAS X measurement program on the TCS SPE Leica. Macropinosomes were quantified by using the ‘Analyze Particles’ feature in ImageJ (National Institutes of Health). Macropinocytic uptake index was computed by determining the total macropinosome area in relation to the total cell area for each field and then by determining the average across all the fields (at least 6 fields). These measurements were done on randomly-selected fields of view. Two-tailed unpaired Student's t test was performed for statistical analysis using GraphPad Prism software. […]

MIA PaCa-2 cells [2] = assay: Immunoblot of p62 and LC3 (autophagic degradation); format: cell-based, human
Experimental: Autophagy Induction. […] For starvation, cells were incubated in starvation medium (20 mM HEPES pH 7.4, 140 mM NaCl, 1 mM CaC2, 1 mM MgCl2, and 1% BSA) for 1.5 or 2 hrs. For glucose starvation, cells were washed three times with PBS and incubated in glucose-free DMEM containing 10% dialyzed FBS for 4 hrs. Immunoblot and immunoprecipitation. Cells were harvested and lysed in RIPA buffer (50 mM Tris-HCl, pH 7.4, 150 mM NaCl, 1% Triton X-100, 1% Na deoxycholate, 0.1% SDS, 1 mM EDTA) supplemented with complete protease inhibitor cocktail. Proteins were resolved on SDS-polyacrylamide gels, and then transferred to a polyvinylidene difluoride membrane. After blocking with 5% (w/v) fat free milk, the membrane was stained with the corresponding primary antibodies followed by incubation with the appropriate secondary HRP-conjugated antibodies, and development with ECL. Immunoreactive bands were detected by automatic X-ray film processor or KwikQuant Imager.

MIA PaCa-2 cells [3] = assay: LC3 puncta / LC3-LAMP1 immunofluorescence; format: cell-based, human; settings: MIA PaCa-2 cells, 10, 20, 40, 80 μM HCQ
Experimental: Cell imaging. Immunostaining was performed as described^44. Cells were cultured on coverslips and fixed in 4% PFA for 10 min at room temperature. After washing twice in PBS, cells were incubated in PBS containing 10% FBS to block nonspecific sites of antibody adsorption. The cells were then incubated with the appropriate primary antibodies (diluted 1:100) and secondary antibodies (diluted 1:500) in PBS containing 10% FBS with or without 0.1% saponin. For cell macropinosome visualization, 24 hrs after seeding, the cells were serum starved for 18 hrs. Macropinosomes were marked using a high-molecular-mass (70 KD) TMR-Dextran (Invitrogen)-uptake assay, wherein TMR-DEX was added to serum-free medium at a final concentration of 1 mg/ml for 30 min at 37° C. At the end of the incubation period, the cells were rinsed five times in cold PBS and immediately fixed in 4% PFA. For tissue macropinosome visualization^45, fresh pancreata were cut into pieces with an approximate 5-mm cuboidal shape. […]
Quantification and statistics. To quantify the number of LC3 puncta, a total of 30 cells were recorded and analyzed using the LAS X measurement program on the TCS SPE Leica. Macropinosomes were quantified by using the ‘Analyze Particles’ feature in ImageJ (National Institutes of Health). […]

MIA PaCa-2 cells [4] = assay: Cell viability assay (CCK-8); format: cell-based, human
Experimental: (§1) Cell viability assay. Cell viability was determined with Cell Counting Kit-8 assay (CCK-8 assay kit, Glpbio). Cells were plated in 96-well plates at a density of 3000 cells (MIA PaCa-2) or 1500 cells (KC6141) per well and incubated overnight prior to treatment. EIPA (10 μM), MRT68921 (600 nM) or erlotinib (2 μM, Sigma) were added to the wells for 72 and 96 hrs. Next, 10 μL of CCK-8 was added to each well. The optical density was read at 450 nm using a microplate reader (FilterMax F5, Molecular Devices, USA) at day 0, 1, 2, 3, and 4. For glutamine-deprivation assays, cells in 96-well plates were rinsed briefly in PBS and incubated in the 0.2 mM glutamine. Glutamine-free DMEM medium was supplemented with 0.2 mM glutamine in the presence of 10% dialysed FBS and 25 mM HEPES. For some conditions, the medium was supplemented with a final concentration of 2% BSA (Fraction V, fatty-acid-, nuclease and protease-free, Calbiochem). For all experiments, media were replaced every 24 hrs. Viable cell counts were obtained using CCK-8 assay described as above.
(§2) In some embodiments, cells were plated in 96-well plates coated with or without ECM at a density of 3000 cells (MIA PaCa-2, 1444, 1305, COLO 357/FG) or 1500 cells (KC6141) per well and incubated overnight prior to treatment. EIPA (10.5 μM), IPI549 (600 nM), MBQ-167 (500 nM), MRT68921 (600 nM) or erlotinib (2 μM, Sigma), ML385 (10 μM, Sigma), HCQ (10 μM or 80 μM) or their combinations were added to the wells for 24, 72 or 96 hrs. Next, 10 μL of CCK-8 was added to each well. The optical density was read at 450 nm using a microplate reader (FilterMax F5, Molecular Devices, USA) at day 0, 1, 2, 3, and 4. For glutamine-deprivation assays, cells in 96-well plates were rinsed briefly in PBS and incubated in the 0.2 mM glutamine. Glutamine-free DMEM medium was supplemented with 0.2 mM glutamine in the presence of 10% dialyzed FBS and 25 mM HEPES. For glucose-deprivation assays, cells in 96-well plates were rinsed briefly in PBS and incubated in the 0.5 mM glucose. Glucose-free DMEM medium was supplemented with 0.5 mM glucose in the presence of 10% dialyzed FBS and 25 mM HEPES. For some conditions, the medium was supplemented with a final concentration of 2% BSA (Fraction V, fatty-acid-, nuclease and protease-free, Calbiochem). For all experiments, media were replaced every 24 hrs. Viable cell counts were obtained using CCK-8 assay described as above.

KC6141 mouse PDAC cells = assay: Cell viability assay (CCK-8); format: cell-based; settings: WT and IKKα KD 6141 cells on ECM, 0.5 mM glucose, 3 days; EIPA, IPI549 600 nM, MBQ-167 500 nM
Experimental: (§3) Extracellular Matrix (ECM) Preparation. Skin fibroblasts were seeded on 6/12/96-well plates. One day after plating, cells were switched into DMEM (with pyruvate) with 10% dialysed FBS supplemented with or without 500 μM ^3H-proline and 100 μM Vitamin C. Cells were cultured for 6 days with media renewal every 24 h. After six days, skin fibroblasts were removed by washing in 1 ml or 500 μl or 100 μl per well PBS with 0.5% (v/v) Triton X-100 and 20 mM NH4OH. ECM was washed five times with PBS before plating KC6141 cells. The following day, KC6141 cells were switched into the indicated medium for 24 or 72 hrs.
as §1, §2

KC6141 cells [5] = assay: L-Amino acid assay; format: cell-based, mouse; settings: KC6141 cells on ECM, 0.5 mM glucose, 24 hrs
Experimental: as §3
L-Amino Acid Assay. Total amount of free L-amino acids (except for glycine) were measured by L-Amino Acid Assay Kit (Colorimetric) (antibodies) according to manufacturer's protocol. Briefly, KC6141 cells were grown on 6-well plates coated with or without ECM and treated as above. The cells were resuspended at 10^6 cells/mL 1× Assay Buffer and were homogenized on ice and then centrifuged to remove debris. 50 μL of each L-Alanine standard or cell lysis was added into wells of a 96-well microtiter plate. Then 50 μL of Reaction Mix was added to each well. The well contents were mixed thoroughly and incubated for 90 minutes at 37° C. protected from light. The plate was read with a spectrophotometric microplate reader in the 540-570 nm range. The concentration of L-Amino Acids was calculated within samples by comparing the sample OD to the standard curve.

KC6141 cells [6] = assay: Luminescence ATP detection assay; format: cell-based, mouse; settings: KC6141 cells on ECM, 0.5 mM glucose, 24 hrs; EIPA 10.5 μM, MBQ-167 500 nM, MRT68921 600 nM
Experimental: as §3
Luminescence ATP Detection Assay. Intracellular ATP level was determined with luminescence ATP detection assay system (PerkinElmer) according to manufacturer's protocol. Briefly, KC6141 cells were grown on 96-well plates coated with or without ECM in the presence of 100 μl 0.5 mM glucose medium with or without EIPA (10.5 μM), MBQ-167 (500 nM), MRT68921 (600 nM) or their combinations for 24 hrs. 50 μl mammalian cell lysis solution was added and shaken for 5 minutes. Next, 50 μl substrate solution was added and shaken for five minutes. Finally, plate was adapted in dark for 10 minutes and luminescence was measured.

COLO 357/FG cells = assay: LC3 puncta and p62/LC3 immunoblot; format: cell-based, human; settings: IKKα^low COLO 357/FG cells, normal or starvation medium 2 hrs, +/- CQ
Experimental: Autophagy Induction. […] For starvation, cells were incubated in starvation medium (20 mM HEPES pH 7.4, 140 mM NaCl, 1 mM CaC2, 1 mM MgCl2, and 1% BSA) for 1.5 or 2 hrs. For glucose starvation, cells were washed three times with PBS and incubated in glucose-free DMEM containing 10% dialyzed FBS for 4 hrs.
Immunoblot and immunoprecipitation. Cells were harvested and lysed in RIPA buffer (50 mM Tris-HCl, pH 7.4, 150 mM NaCl, 1% Triton X-100, 1% Na deoxycholate, 0.1% SDS, 1 mM EDTA) supplemented with complete protease inhibitor cocktail. Proteins were resolved on SDS-polyacrylamide gels, and then transferred to a polyvinylidene difluoride membrane. After blocking with 5% (w/v) fat free milk, the membrane was stained with the corresponding primary antibodies followed by incubation with the appropriate secondary HRP-conjugated antibodies, and development with ECL. Immunoreactive bands were detected by automatic X-ray film processor or KwikQuant Imager.
Data are presented as mean±SEM.

CCN(CCO)CCCC(C)Nc1ccnc2cc(Cl)ccc12 (stereo not shown) [HCQ, hydroxychloroquine]
disruption of MP (MIA PaCa-2 cells [1]; 10 μM HCQ, inferred from lack of synergy with MRT68921): barely disrupted MP
degradation of MP (DQ-BSA in TMR-DEX macropinosomes) (MIA PaCa-2 cells [1]; MIA PaCa-2 cells, 10, 20, 40, 80 μM HCQ): induced the degradation of MP at 10 μM, 20 μM, 40 μM, but not at 80 μM
MP (TMR-DEX and DQ-BSA co-localization, MP-related protein expression) (MIA PaCa-2 cells [1]; MIA PaCa-2 cells, 10-40 μM HCQ): stimulated MP
MP inhibition (MIA PaCa-2 cells [1]; MIA PaCa-2 cells, HCQ 10-80 μM): inhibited MP only at 80 μM
autophagic degradation (LC3-II, p62, lysosomal LC3 retention) (MIA PaCa-2 cells [2]; MIA PaCa-2 cells, 10-40 μM HCQ): inhibited autophagic degradation
LC3-LAMP1 colocalization (MIA PaCa-2 cells [3]): enhanced LC3-LAMP1 colocalization in a concentration-dependent manner
synergy in growth inhibition with EIPA or ML385 (MIA PaCa-2 cells [4]; HCQ 10 μM combined with EIPA or ML385): synergized
synergy in growth inhibition with MRT68921 (MIA PaCa-2 cells [4]; HCQ 10 μM combined with MRT68921): did not synergize
cell growth (MIA PaCa-2 cells [4]; WT and IKKα^Δ MIA PaCa-2 cells, 80 μM HCQ, 3 days): inhibited cell growth
cell viability (total viable cells relative to vehicle) (MIA PaCa-2 cells [4]; WT and IKKα^Δ MIA PaCa-2 cells, 10 or 80 μM HCQ, 3 days): suppression of cell viability

CCn1c2ccccc2c2cc(-n3nncc3-c3ccccc3)ccc21 (racemic) [MBQ-167]
cell viability enhanced by extracellular matrix (ECM) (KC6141 mouse PDAC cells): suppressed
amino acid content (KC6141 cells [5]): reduced
cellular ATP (KC6141 cells [6]): reduced

CCN(CC)CCCC(C)Nc1ccnc2cc(Cl)ccc12 (stereo not shown) [CQ, chloroquine]
p62 and LC3-II levels (MIA PaCa-2 cells [2]; IKKα-deficient (KD) MIA PaCa-2 cells, normal or starvation medium 2 hrs, +/- CQ): did not increase p62 and LC3-II; also recorded: failed to increase p62 and LC3-II
LC3 puncta, LC3 lipidation and p62 on starvation (COLO 357/FG cells): not affected
LC3 puncta, LC3 lipidation and p62 on starvation (COLO 357/FG cells; listed as chloroquine): no effect
